{"source": "patent US20180214411A1", "about": "“COMPOSITION COMPRISING SATIETY-INDUCING PARTICLES” (PERORA GMBH, priority 2015, published 2018)", "assay": "tryptophan release / dissolution in fasted-state simulated gastric fluid (FaSSGF)", "assay_type": "physicochemical", "conditions": "30 mg powder in 22 mL FaSSGF, 37° C., agitated", "method": "30 mg of tryptophan powder were suspended in 22 mL FaSSGF at 37° C. and agitated (shaker ST5 from CAT, Germany). Aliquots were removed at time intervals of 5 min, and tryptophan concentration was quantified using absorption measurement at a wavelength of 280 nm in a NanoDrop® 2000 device (Thermo Scientific, USA).", "data": [{"smiles": "N[C@@H](Cc1c[nH]c2ccccc12)C(=O)O", "note": "[tryptophan powder, L-Tryptophan]", "values": [{"measurement": "time after which tryptophan was quantitatively dissolved", "value": 10, "unit": "min"}]}]}
